Reference: paper PMC10783034, “Pharmacokinetic and pharmacodynamic evaluation of the atypical tetracyclines chelocardin and amidochelocardin in murine infection models” (Microbiology Spectrum, 2023)
Values after ≈ are worked out from the molar mass of the structure shown.

Experiments:
E. coli C175-94 [1] = experiment: Ascending urinary tract infection model in OF-1 mice; assay type: in vivo; conditions: for bacterial burden in urine: CHD/CDCHD 12 mg/kg SC BID on day 1 and 2 post-inoculation; for bacterial burden in urine / bacterial burden in kidneys / bacterial burden in the bladder: day 3, vs vehicle; for animals with sterile kidneys / bacterial burden in kidneys / bacterial burden in the bladder: CHD/CDCHD 12 mg/kg SC BID, gentamicin 100 mg/kg SC BID; for animals with sterile kidneys: control animals 23.8%
Protocol: (§1) The model was conducted as described previously ([27], [60]). In brief, n = 21 animals were used per group in the main study, and n = 3 animals per group in satellite groups for histopathological analysis. Three days before the start of the study and during the study, mice had free access to 5% glucose as drinking water. Fresh overnight colonies of E. coli from a 5% horse blood agar plate were suspended in PBS pH 7.4 to approximately 10^9 cfu/mL. Approximately 1 hour before inoculation, mice were treated orally with […] Nurofen (20 mg ibuprofen/mL corresponding to approximately 30 mg/kg) as a pain relief. Urine was removed from the bladder by gently pressing the abdomen and mice were anaesthetized with 0.15 mL Zoletil mix SC. Thereafter, the mice were inoculated. A syringe with a catheter, containing the bacterial suspension was inserted via the urethra into the bladder and 50 µL of the inoculum was slowly injected into the bladder. Hereafter, the mouse was placed in the cage and kept in a warming cabinet until fully awake (approximately 4 hours). The mice were treated with CHD (12 mg/kg SC BID), CDCHD (12 mg/kg SC BID), gentamicin (100 mg/kg SC BID), or vehicle BID (2nd dose was administered approximately 6 hours after the 1st dose on each day) on day 1, that is, first dose around 24 hours post-infection, and day 2 post-inoculation. The mice were observed during the study and scored based on their behavior and clinical signs. Clinical scoring comprised assessment of piloerection in the skin, activity (movement, curiosity), and appearance of eyes. The scoring range comprised 0–4. In our model, a maximum score of 1; thus, only mild discomfort was observed. On day 3 post-inoculation and after sampling urine, mice were euthanized by cervical dislocation, and bladder and kidneys were removed from 21 mice in each treatment group aseptically for cfu determination. The bladder and kidneys were stored at −80°C and later homogenized in 0.5 or 1 mL saline, respectively. Colony counts of urine were determined immediately. From the three additional mice in each treatment group (satellite groups), urine and plasma were sampled and frozen at −80°C, and bladders, kidneys, and liver were collected in 4% buffered formalin. Cfu was determined in urine samples within 2–3 hours after sampling. Frozen organs were thawed and homogenized with steel beads using a tissue lyser. All samples, urine, kidney, and bladder, were 10-fold diluted in saline and 20 µL spots were applied on blue agar plates in duplicates. In addition, undiluted samples of urine (2–100 μL depending on the available amount of urine) were spread on a separate agar plate to determine the colony counts at the lowest possible detection level. All agar plates were incubated for 18–22 hours at 35°C in ambient air.
For the neutropenic thigh infection model with E. coli ATCC 25922, the thighs were regarded as two independent infection sites throughout the experiment. For statistical analysis, individual thighs (left and right) were treated as separate samples although these were not completely independent values. For the neutropenic thigh infection model with K. pneumoniae ATCC 43816, the individual thighs (left and right) were treated as one sample. For the efficacy models, the non-parametric Kruskal-Wallis test was used with GraphPad Prism 9.4.1. For the ascending urinary tract infection model, an ordinary one-way ANOVA with Dunnett’s multiple comparison test was used with GraphPad Prism 9.4.1.

K. pneumoniae strains = tested on: K. pneumoniae strains; set-up: method as in PMID 32962088; conditions: selection of different K. pneumoniae strains; cited from earlier work
ESKAPE pathogens = experiment: MIC determination against a variety of ESKAPE pathogens; assay type: cell-based; conditions: against A. baumannii, P. aeruginosa, and E. aerogenes
Protocol: (§2) The assay was conducted as described previously ([54]) with the following modifications. The MIC was tested against the K. pneumoniae strain ATCC 43816 in an MHB (not cation-adjusted) medium. CHD and CDCHD were tested in concentrations ranging from 0.078 to 10 µg/mL. Moreover, the MIC was determined for the following strains: K. pneumoniae DSM-30104, E. faecium DSM-20477, S. aureus DSM-346, P. aeruginosa DSM-11128, A. baumannii DSM-30008, E. aerogenes DSM-30053, E. coli ATCC 25922, and E. coli C175-94. All strains were grown in MHB medium, except for E. faecium, which was grown in TSB. CHD, epi-CDH, and CDCHD were tested in concentrations ranging from 0.125 to 64 µg/mL as described previously ([19]).

E. coli ATCC 25922 = tested on: E. coli ATCC 25922; set-up: method as in PMID 32962088; conditions: cited from earlier work
E. aerogenes DSM-30053 = experiment: MIC determination; assay type: cell-based; conditions: MHB medium
Protocol: as §2

E. coli C175-94 [2] = experiment: MIC determination; assay type: cell-based; conditions: MHB medium
Protocol: as §2

P. aeruginosa DSM-11128 = experiment: MIC determination; assay type: cell-based; conditions: MHB medium
Protocol: as §2

S. aureus DSM-346 = experiment: MIC determination; assay type: cell-based; conditions: MHB medium
Protocol: as §2

A. baumannii DSM-30008 = experiment: MIC determination; assay type: cell-based; conditions: MHB medium
Protocol: as §2

K. pneumoniae ATCC 43816 [3] = experiment: MIC determination; assay type: cell-based; conditions: MHB (not cation-adjusted) medium
Protocol: as §2

K. pneumoniae DSM-30104 = experiment: MIC determination; assay type: cell-based; conditions: MHB medium
Protocol: as §2

K. pneumoniae ATCC 43816 [4] = tested on: K. pneumoniae ATCC 43816; set-up: method as in PMID 32962088; conditions: cited from earlier work
[5] = Histopathological analysis of kidneys and bladder in the ascending urinary tract infection model (satellite groups); assay type: in vivo, mice; set-up: key to histopathological score Pelvis: 1 = mild; 2 = moderate; 3 = severe; histopathological score Papilla / histopathological score Bladder: scale not given here; conditions: for histopathological findings in bladder / histopathological findings in kidneys: infected mice, CHD/CDCHD 12 mg/kg SC BID, gentamicin 100 mg/kg SC BID
Protocol: as §1
Approximately 3 µm thick sections of formalin-fixed, paraffin-embedded samples of liver and kidney were analyzed blinded, and randomized to the experimental groups by a trained veterinarian. […] Kidneys were analyzed for changes in the glomeruli (not found), tubular dilation (1 = mild or up to 20% of tubuli affected, 2 = moderate or 25-40% of tubuli affected, 3 = severe 50% or more), and inflammatory infiltrate in the pelvis (1 = mild, 2 = moderate, 3 = severe).

With `CC(=O)C1=C(O)[C@H](N)[C@@H]2Cc3c(c(O)c4c(O)c(C)ccc4c3C)C(=O)[C@]2(O)C1=O` [CHD, chelocardin] the “bacterial burden in urine” value (E. coli C175-94 [1]) was “reduced bacterial burden in urine significantly”, the “animals with sterile kidneys” value (E. coli C175-94 [1]) was 38.1% and the “bacterial burden in kidneys” value (E. coli C175-94 [1]) was “slight, non-significant effect”. For the same compound, the “bacterial burden in the bladder” value (E. coli C175-94 [1]) was “significant reduction compared to vehicle control”, the MIC (K. pneumoniae strains) was ~ 4 µg/mL and the “activity (in words)” value (ESKAPE pathogens) was “inactive”. The MIC (E. coli ATCC 25922) was 2 µg/mL (≈ 4.86 µM), the MIC (E. aerogenes DSM-30053) was 32 µg/mL (≈ 77.8 µM) and the MIC (E. coli C175-94 [2]) was 2 µg/mL (≈ 4.86 µM). The MIC (P. aeruginosa DSM-11128) was greater than 64 µg/mL, the MIC (S. aureus DSM-346) was 4 µg/mL (≈ 9.72 µM) and the MIC (A. baumannii DSM-30008) was 16 µg/mL (≈ 38.9 µM). The MIC (K. pneumoniae ATCC 43816 [3]) was 5 µg/mL (≈ 12.2 µM), the MIC (K. pneumoniae DSM-30104) was 2 to 4 µg/mL and the “minimal bactericidal concentration (MBC)” value (K. pneumoniae ATCC 43816 [4]) was 16 µg/mL (≈ 38.9 µM). The “histopathological score Glomeruli” value ([5]; animal No. 1) was 0, the “histopathological score Papilla” value ([5]; animal No. 1) was 2 and the “histopathological score Pelvis” value ([5]; animal No. 1) was 0. The “histopathological score Tubuli” value ([5]; animal No. 1) was 3 (3 = severe 50% or more), the “histopathological score Bladder” value ([5]; animal No. 2) was “- 1 1” and the “histopathological score Glomeruli” value ([5]; animal No. 2) was 0. The “histopathological score Papilla” value ([5]; animal No. 2) was 2, the “histopathological score Pelvis” value ([5]; animal No. 2) was 1 and the “histopathological score Tubuli” value ([5]; animal No. 2) was 3 (3 = severe 50% or more). For the same compound, the “histopathological score Bladder” value ([5]; animal No. 3) was “- 1 1”, the “histopathological score Glomeruli” value ([5]; animal No. 3) was 0 and the “histopathological score Papilla” value ([5]; animal No. 3) was 0. The “histopathological score Pelvis” value ([5]; animal No. 3) was 2, the “histopathological score Tubuli” value ([5]; animal No. 3) was 1 (1 = mild or up to 20% of tubuli affected) and the “histopathological findings in bladder” value [5] was “mild, focal, submucosal inflammatory aggregates”. For the same compound, the “histopathological findings in kidneys” value [5] was “moderate tubulus degeneration with vacuolated cytoplasm, accumulation of hyaline droplets, protein casts, and a mild to moderate accumulation of inflammatory cells”.

In the case of `Cc1ccc2c(C)c3c(c(O)c2c1O)C(=O)C1(O)C(=O)C(C(N)=O)=C(O)C(N)C1C3` (stereo not shown) [CDCHD, 2-carboxamido-2-deacetyl-chelocardin], the “bacterial burden in urine” value (E. coli C175-94 [1]) is reported as “reduced bacterial burden in urine significantly”, the “animals with sterile kidneys” value (E. coli C175-94 [1]) is reported as 61.9% and the “bacterial burden in kidneys” value (E. coli C175-94 [1]) is reported as “strong and significant reduction”. For the same compound, the “bacterial burden in the bladder” value (E. coli C175-94 [1]) was “significant reduction compared to vehicle control”, the MIC (K. pneumoniae strains) was ~ 4 µg/mL and the MIC (E. coli ATCC 25922) was 2 µg/mL (≈ 4.85 µM). The MIC (E. aerogenes DSM-30053) was 8 µg/mL (≈ 19.4 µM), the MIC (E. coli C175-94 [2]) was 2 to 4 µg/mL and the MIC (P. aeruginosa DSM-11128) was 16 µg/mL (≈ 38.8 µM). It also gave an MIC (S. aureus DSM-346) of 2 µg/mL (≈ 4.85 µM), an MIC (A. baumannii DSM-30008) of 8 µg/mL (≈ 19.4 µM) and an MIC (K. pneumoniae DSM-30104) of 1 µg/mL (≈ 2.42 µM). For the same compound, the “minimal bactericidal concentration (MBC)” value (K. pneumoniae ATCC 43816 [4]) was 8 µg/mL (≈ 19.4 µM), the “histopathological score Bladder” value ([5]; animal No. 1) was 0 and the “histopathological score Glomeruli” value ([5]; animal No. 1) was 0. For the same compound, the “histopathological score Papilla” value ([5]; animal No. 1) was 0, the “histopathological score Pelvis” value ([5]; animal No. 1) was 0 and the “histopathological score Tubuli” value ([5]; animal No. 1) was 2 (2 = moderate or 25-40% of tubuli affected). For the same compound, the “histopathological score Bladder” value ([5]; animal No. 2) was 0, the “histopathological score Glomeruli” value ([5]; animal No. 2) was 0 and the “histopathological score Papilla” value ([5]; animal No. 2) was 0. For the same compound, the “histopathological score Pelvis” value ([5]; animal No. 2) was 1, the “histopathological score Tubuli” value ([5]; animal No. 2) was 2 (2 = moderate or 25-40% of tubuli affected) and the “histopathological score Bladder” value ([5]; animal No. 3) was 0. For the same compound, the “histopathological score Glomeruli” value ([5]; animal No. 3) was 0, the “histopathological score Papilla” value ([5]; animal No. 3) was 1 and the “histopathological score Pelvis” value ([5]; animal No. 3) was 0. For the same compound, the “histopathological score Tubuli” value ([5]; animal No. 3) was 1 (1 = mild or up to 20% of tubuli affected), the “histopathological findings in bladder” value [5] was “did not show any significant alterations” and the “histopathological findings in kidneys” value [5] was “a moderate tubulus dilation (resulting in moderate or 20%–40% of tubuli affected) and protein casts”.
